Assay results taken from patent US11000033B2, “Ketone or oxime compound, and herbicide” (NISSAN CHEMICAL CORPORATION, priority 2014, dated 2021).

Tests used:
Type in all cases: in vivo
Scirpus juncoides = assay: Test Example 1: herbicidal activity, application before weed generation in submerged conditions (symbol B); conditions: application herbicide amount 320 g/ha
Method in brief: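 Weed control was rated three weeks after treatment on a 0–5 scale, from 5% or lower up to 90% or more. Pre-emergence water-surface application of diluted emulsion at a predetermined rate was made on the day of sowing, in flooded (4 cm water) pots containing rice seedlings, kept at 25–30 °C under glass.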

Amaranthus retroflexus = assay: Test Example 4: herbicidal effect by soil treatment (symbol N); conditions: application herbicide amount 320 g/ha
Method in brief: (§1)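 Seeds were sown in sterilized diluvial soil, covered with about 1.5 cm of soil, and the soil surface was sprayed with a water-diluted emulsion of the compound at a predetermined rate. Plants grew in a greenhouse at 25° C. to 30° C.; effects were scored visually 3 weeks after application.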

Lolium multiflorum Lam. = assay: Test Example 4: herbicidal effect by soil treatment (symbol K); conditions: application herbicide amount 320 g/ha
Method in brief: as §1

corn = assay: Test Example 4: effect on crop by soil treatment (symbol c); conditions: application herbicide amount 320 g/ha
Method in brief: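 Diluvial soil (sterilized) in boxes; seeds placed spot-wise alongside weed species; ~1.5 cm covering soil. Greenhouse, 25–30° C.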

[1] = test system: Echinochloa crus-galli var. crus-galli; assay: Test Example 4: herbicidal effect by soil treatment (symbol H); conditions: application herbicide amount 320 g/ha
Method in brief: as §1

wheat = assay: Test Example 5: effect on crop by foliage application, plastic box (symbol e); conditions: 320 g/ha, 3 weeks after application
Method in brief: (§2)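 Diluvial soil, sterilized and boxed (21 × 13 × 7 cm), received spot-sown seed covered by about 1.5 cm soil; plants were then greenhouse-grown at 25–30° C.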

beet = assay: Test Example 4: effect on crop by soil treatment (symbol f); conditions: application herbicide amount 320 g/ha
Method in brief: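 Plants grew in a 25° C. to 30° C. greenhouse after spot-sowing of seeds, including beet, rapeseed, wheat and rice, into sterilized diluvial soil under roughly 1.5 cm of cover soil.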

Setaria viridis = assay: Test Example 5: herbicidal effect by foliage application, plastic box (symbol G); conditions: 320 g/ha, 3 weeks after application
Method in brief: (§3)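 Leaf-applied emulsion, water-diluted to a preset herbicide dose, on two-week-old seedlings raised in a 25° C. to 30° C. greenhouse; injury rated at 3 weeks using earlier criteria.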

soybean = assay: Test Example 5: effect on crop by foliage application, plastic box (symbol d); conditions: 320 g/ha, 3 weeks after application
Method in brief: as §2

Leptochloa chinensis = assay: Test Example 3: herbicidal effect by foliage application, Wagner pot (symbol D); conditions: application herbicide amount 320 g/ha
Method in brief: (§4)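 Rating at 3 weeks post-spray, by defined criteria. Treatment: emulsion diluted with water to a predetermined amount, applied evenly to foliage of 14-day-old plants raised in alluvial soil flooded 0.1–0.5 cm deep at 25–30 °C, rice co-sown.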

transplanted rice plant = assay: Test Example 1: effect on crop, application before weed generation in submerged conditions (symbol a); conditions: application herbicide amount 320 g/ha
Method in brief: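 Rice at 2.5 leaf stage transplanted into submerged soil (4 cm depth) sown with three weed species; herbicide applied before weed emergence.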

Cyperus difformis = assay: Test Example 3: herbicidal effect by foliage application, Wagner pot (symbol E); conditions: application herbicide amount 320 g/ha
Method in brief: as §4

Veronica persica = assay: Test Example 5: herbicidal effect by foliage application, plastic box (symbol R); conditions: 320 g/ha, 3 weeks after application
Method in brief: as §3

SMILES	Herbicidal effect grade, B: Scirpus juncoides (Scirpus juncoides)	N (Amaranthus retroflexus) herbicidal effect grade (Amaranthus retroflexus)	K (Lolium multiflorum Lam.) herbicidal effect grade (Lolium multiflorum Lam.)	c (corn) effect on crop grade (corn)	H (Echinochloa crus-galli var. crus-galli) herbicidal effect grade [1]	e: wheat, effect on crop grade (wheat)	f (beet) effect on crop grade (beet)	G: Setaria viridis, herbicidal effect grade (Setaria viridis)	d: soybean, effect on crop grade (soybean)	herbicidal effect on D (Leptochloa chinensis), grade 0-5 (Leptochloa chinensis)	Effect grade on crop, a: transplanted rice plant (transplanted rice plant)	herbicidal effect on E, grade 0-5 (Cyperus difformis)	R: Veronica persica, herbicidal effect grade (Veronica persica)
CON=C(C)CC1CC(OC(=O)C(C)(C)OC(C)=O)=C(c2c(C)cc(C)cc2C)C1=O (stereo not drawn) [1-034]	4 (Herbicidal ratio of 70% or higher and lower than 90%)	5 (Herbicidal ratio of 90% or more (almost completely withered))	5 (Herbicidal ratio of 90% or more (almost completely withered))	4 (Herbicidal ratio of 70% or higher and lower than 90%)	5 (Herbicidal ratio of 90% or more (almost completely withered))	5 (Herbicidal ratio of 90% or more (almost completely withered))	4 (Herbicidal ratio of 70% or higher and lower than 90%)	5 (Herbicidal ratio of 90% or more (almost completely withered))	4 (Herbicidal ratio of 70% or higher and lower than 90%)	5 (Herbicidal ratio of 90% or more (almost completely withered))	5 (Herbicidal ratio of 90% or more (almost completely withered))	5 (Herbicidal ratio of 90% or more (almost completely withered))	
CON=C(C)CC1CC(OC(=O)CCC2CCCCC2)=C(c2c(C)cc(C)cc2C)C1=O (stereo not drawn) [1-035]	5 (Herbicidal ratio of 90% or more (almost completely withered))	5 (Herbicidal ratio of 90% or more (almost completely withered))	5 (Herbicidal ratio of 90% or more (almost completely withered))	4 (Herbicidal ratio of 70% or higher and lower than 90%)	5 (Herbicidal ratio of 90% or more (almost completely withered))	5 (Herbicidal ratio of 90% or more (almost completely withered))	3 (Herbicidal ratio of 40% or higher and lower than 70%)	5 (Herbicidal ratio of 90% or more (almost completely withered))	4 (Herbicidal ratio of 70% or higher and lower than 90%)	5 (Herbicidal ratio of 90% or more (almost completely withered))		5 (Herbicidal ratio of 90% or more (almost completely withered))	
CON=C(CC1CC(O)=C(c2c(C)cc(C)cc2C)C1=O)C(C)(C)C (stereo not drawn) [1-059]	3 (Herbicidal ratio of 40% or higher and lower than 70%)	0 (Herbicidal ratio of 5% or lower (almost no effect))	5 (Herbicidal ratio of 90% or more (almost completely withered))	3 (Herbicidal ratio of 40% or higher and lower than 70%)	4 (Herbicidal ratio of 70% or higher and lower than 90%)	0 (Herbicidal ratio of 5% or lower (almost no effect))	0 (Herbicidal ratio of 5% or lower (almost no effect))	4 (Herbicidal ratio of 70% or higher and lower than 90%)	0 (Herbicidal ratio of 5% or lower (almost no effect))	1 (Herbicidal ratio of 5% or higher and lower than 20%)	4 (Herbicidal ratio of 70% or higher and lower than 90%)	3 (Herbicidal ratio of 40% or higher and lower than 70%)	0 (Herbicidal ratio of 5% or lower (almost no effect))
